The values that follow come from patent publication US11497752B2, “Compounds and uses thereof” (Foghorn Therapeutics Inc., priority 2018, dated 2022).

pIC50: −log10 of the molar value. Bounds are passed on as bounds.

The target of one test is BRG-1 (Homo sapiens, UniProt P51532). Put plainly: ATPase catalytic activity of BRG-1 (ADP-Glo in vitro biochemical assay). The following applies: for BRG1 Max % Inhibition: Table 5.
In another test the target is BRM (Homo sapiens, UniProt P51531). The test is described as follows: ATPase catalytic activity of BRM (ADP-Glo in vitro biochemical assay). Particulars: for BRM Max % Inhibition: Table 5.
BRM, sequence (P51531 whole entry): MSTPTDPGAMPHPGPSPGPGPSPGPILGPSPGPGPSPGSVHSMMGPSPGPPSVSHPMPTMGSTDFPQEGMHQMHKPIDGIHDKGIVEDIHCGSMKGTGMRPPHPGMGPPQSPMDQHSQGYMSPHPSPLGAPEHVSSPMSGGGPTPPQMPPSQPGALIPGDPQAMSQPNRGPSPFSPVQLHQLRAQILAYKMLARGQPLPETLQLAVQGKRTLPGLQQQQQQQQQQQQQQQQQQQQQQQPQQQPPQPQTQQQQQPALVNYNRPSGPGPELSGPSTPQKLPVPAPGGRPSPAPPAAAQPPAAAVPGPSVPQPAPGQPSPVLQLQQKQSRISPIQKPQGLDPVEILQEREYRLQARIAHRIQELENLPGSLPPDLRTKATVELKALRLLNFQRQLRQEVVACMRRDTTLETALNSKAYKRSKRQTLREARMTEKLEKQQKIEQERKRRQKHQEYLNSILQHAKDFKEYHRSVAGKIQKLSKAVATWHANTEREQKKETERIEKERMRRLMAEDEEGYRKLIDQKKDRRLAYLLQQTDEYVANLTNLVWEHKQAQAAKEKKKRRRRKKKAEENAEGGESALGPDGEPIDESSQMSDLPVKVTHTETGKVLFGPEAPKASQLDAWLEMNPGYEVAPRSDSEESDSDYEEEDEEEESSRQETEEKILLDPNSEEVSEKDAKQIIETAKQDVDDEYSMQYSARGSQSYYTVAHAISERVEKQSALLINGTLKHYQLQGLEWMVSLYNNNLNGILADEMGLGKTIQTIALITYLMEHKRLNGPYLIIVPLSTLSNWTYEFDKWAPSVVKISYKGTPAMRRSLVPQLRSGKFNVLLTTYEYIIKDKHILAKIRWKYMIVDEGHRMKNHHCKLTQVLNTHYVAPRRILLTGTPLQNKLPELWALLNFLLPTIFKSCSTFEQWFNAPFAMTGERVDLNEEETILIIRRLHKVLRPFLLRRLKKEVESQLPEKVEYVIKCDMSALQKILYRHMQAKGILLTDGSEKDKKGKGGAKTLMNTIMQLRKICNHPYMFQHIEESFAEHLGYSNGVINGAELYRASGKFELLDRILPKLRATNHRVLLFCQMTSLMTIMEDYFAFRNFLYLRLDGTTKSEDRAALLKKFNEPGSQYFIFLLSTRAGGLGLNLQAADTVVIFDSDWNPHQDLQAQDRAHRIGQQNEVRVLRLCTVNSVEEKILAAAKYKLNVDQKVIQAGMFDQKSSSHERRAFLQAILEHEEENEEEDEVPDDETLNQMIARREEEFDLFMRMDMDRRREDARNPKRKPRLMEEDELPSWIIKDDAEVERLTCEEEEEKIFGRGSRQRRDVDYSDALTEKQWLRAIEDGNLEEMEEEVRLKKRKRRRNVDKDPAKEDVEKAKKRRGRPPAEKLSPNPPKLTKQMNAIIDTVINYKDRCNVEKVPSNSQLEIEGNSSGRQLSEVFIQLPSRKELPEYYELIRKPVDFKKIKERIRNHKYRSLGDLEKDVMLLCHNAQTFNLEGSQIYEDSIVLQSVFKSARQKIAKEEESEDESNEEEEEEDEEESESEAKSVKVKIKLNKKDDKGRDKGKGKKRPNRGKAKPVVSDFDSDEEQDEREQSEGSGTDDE

BRG-1, sequence (P51532 whole entry): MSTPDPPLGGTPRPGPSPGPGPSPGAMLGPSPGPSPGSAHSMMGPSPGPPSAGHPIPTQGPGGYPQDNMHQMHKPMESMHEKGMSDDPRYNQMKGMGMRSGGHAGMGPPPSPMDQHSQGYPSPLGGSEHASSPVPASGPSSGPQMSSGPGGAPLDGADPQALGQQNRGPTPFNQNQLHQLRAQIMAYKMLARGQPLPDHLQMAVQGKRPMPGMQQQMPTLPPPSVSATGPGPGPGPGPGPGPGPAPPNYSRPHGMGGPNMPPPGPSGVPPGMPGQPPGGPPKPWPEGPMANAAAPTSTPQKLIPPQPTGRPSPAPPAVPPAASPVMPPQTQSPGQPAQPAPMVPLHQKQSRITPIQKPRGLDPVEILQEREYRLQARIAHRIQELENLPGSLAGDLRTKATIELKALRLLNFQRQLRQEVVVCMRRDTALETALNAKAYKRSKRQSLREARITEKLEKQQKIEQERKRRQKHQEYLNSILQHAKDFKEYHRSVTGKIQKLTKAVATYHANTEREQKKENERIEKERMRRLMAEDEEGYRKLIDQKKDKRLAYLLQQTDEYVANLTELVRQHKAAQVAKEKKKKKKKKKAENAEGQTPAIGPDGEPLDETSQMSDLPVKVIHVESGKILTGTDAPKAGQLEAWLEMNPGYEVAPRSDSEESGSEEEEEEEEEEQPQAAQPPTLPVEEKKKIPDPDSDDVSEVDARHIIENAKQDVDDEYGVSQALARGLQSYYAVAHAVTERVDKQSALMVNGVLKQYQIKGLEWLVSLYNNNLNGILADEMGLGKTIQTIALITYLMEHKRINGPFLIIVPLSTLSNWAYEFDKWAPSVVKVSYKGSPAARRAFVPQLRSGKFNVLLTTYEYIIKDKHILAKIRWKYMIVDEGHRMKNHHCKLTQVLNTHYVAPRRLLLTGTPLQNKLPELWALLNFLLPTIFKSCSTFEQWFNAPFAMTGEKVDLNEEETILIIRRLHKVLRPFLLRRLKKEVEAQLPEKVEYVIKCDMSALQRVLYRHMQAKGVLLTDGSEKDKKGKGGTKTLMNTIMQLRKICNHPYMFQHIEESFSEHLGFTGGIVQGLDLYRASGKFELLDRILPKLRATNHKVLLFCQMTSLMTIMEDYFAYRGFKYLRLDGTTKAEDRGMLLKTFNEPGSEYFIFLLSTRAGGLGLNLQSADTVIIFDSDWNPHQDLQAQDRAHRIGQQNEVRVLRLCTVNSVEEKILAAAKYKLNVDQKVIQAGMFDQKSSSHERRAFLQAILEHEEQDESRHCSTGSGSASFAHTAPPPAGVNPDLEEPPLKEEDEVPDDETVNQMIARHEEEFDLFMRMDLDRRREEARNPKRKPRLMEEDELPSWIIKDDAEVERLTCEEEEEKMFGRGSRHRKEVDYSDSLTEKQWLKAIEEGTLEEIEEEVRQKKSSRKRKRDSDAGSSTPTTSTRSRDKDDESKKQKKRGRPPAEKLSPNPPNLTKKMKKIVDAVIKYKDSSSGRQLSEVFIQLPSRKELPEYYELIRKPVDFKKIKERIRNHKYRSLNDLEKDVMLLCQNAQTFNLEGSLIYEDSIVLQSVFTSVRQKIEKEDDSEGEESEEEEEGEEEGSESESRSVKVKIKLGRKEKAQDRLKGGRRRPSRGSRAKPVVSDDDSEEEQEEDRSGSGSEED

For orientation: pIC50 means the negative decadic logarithm of the IC50, by convention in mol/L. Higher therefore signals a small IC50. As to `CC(C)CC[C@H](NC(=O)c1ccccc1)C(=O)Nc1nc(-c2ccccc2)cs1` [Compound 46, N-[(1S)-4-methyl-1-[(4-phenylthiazol-2-yl)carbamoyl]pentyl]benzamide], the pIC50 on BRG-1 and on BRM was 5.00 to 6.00 each time.
On to `O=C(N[C@@H](CCc1ccccc1)C(=O)Nc1nc(-c2ccccc2)cs1)c1ccccc1` [Compound 49, N-[(1S)-3-phenyl-1-[(4-phenylthiazol-2-yl)carbamoyl]propyl]benzamide], for which the pIC50 against BRG-1 and against BRM was 5.00 to 6.00 in each case.
Consider `CCC[C@H](NC(=O)c1ccccc1)C(=O)Nc1nc(-c2ccccc2)cs1` [Compound 51, N-[(1S)-1-[(4-phenylthiazol-2-yl)carbamoyl]butyl]benzamide], for which the pIC50 is under 5.00 against BRG-1 and 5.00 to 6.00 against BRM.
For `CSCC[C@H](NC(=O)c1ccc(O)cc1)C(=O)Nc1nc(-c2ccccc2)cs1` [Compound 53, 4-hydroxy-N-[(1S)-3-methylsulfanyl-1-[(4-phenylthiazol-2-yl)carbamoyl]propyl]benzamide], the pIC50 against BRG-1 and on BRM was 5.00 to 6.00 in each case.
For the compound `CSCC[C@H](NC(=O)c1cccc(C(C)(C)O)c1)C(=O)Nc1nc(-c2ccccc2)cs1` [Compound 55, (S)-3-(2-hydroxypropan-2-yl)-N-(4-(methylthio)-1-oxo-1-((4-phenylthiazol-2-yl)amino)butan-2-yl)benzamide], at BRG-1, the pIC50 is 5.00 to 6.00 and the “BRG1 Max % Inhibition” value is reported as over 80%. Moreover, on BRM, the pIC50 is 5.00 to 6.00 and the “BRM Max % Inhibition” value is listed as over 90%.
For `CSCC[C@H](NC(=O)c1ccc(CN)cc1)C(=O)Nc1nc(-c2ccccc2)cs1` [Compound 57, 4-(aminomethyl)-N-[3-methylsulfanyl-1-[(4-phenylthiazol-2-yl)carbamoyl]propyl]benzamide], at BRG-1, the pIC50 was under 5.00 and the “BRG1 Max % Inhibition” value was over 90%. At BRM, the pIC50 is under 5.00 and the “BRM Max % Inhibition” value is over 90%.
For `CSCC[C@H](NC(=O)c1cccc(O)c1)C(=O)Nc1nc(-c2ccccc2)cs1` [Compound 59, (S)-3-hydroxy-N-(4-(methylthio)-1-oxo-1-((4-phenylthiazol-2-yl)amino)butan-2-yl)benzamide], at BRG-1, the pIC50 is under 5.00 and the “BRG1 Max % Inhibition” value was over 90%. For the same compound, at BRM, the pIC50 was under 5.00 and the “BRM Max % Inhibition” value is reported as over 90%.
For the compound `CSCC[C@H](NC(=O)c1ccc(CN(C)C)cc1)C(=O)Nc1nc(-c2ccccc2)cs1` [Compound 60, 4-[(dimethylamino)methyl]-N-[(1S)-3-methylsulfanyl-1-[(4-phenylthiazol-2-yl)carbamoyl]propyl]benzamide], at BRG-1, the negative logarithm of the IC50 (pIC50) was under 5.00 and the “BRG1 Max % Inhibition” value is recorded as over 80%. In addition, at BRM, the pIC50 was under 5.00 and the “BRM Max % Inhibition” value is over 90%.
As for `CC(C)(O)c1cccc(C(=O)NCC(=O)Nc2nc(-c3ccccc3)cs2)c1` [Compound 61, 3-(2-hydroxypropan-2-yl)-N-(2-oxo-2-((4-phenylthiazol-2-yl)amino)ethyl)benzamide], at BRG-1, the pIC50 was 5.00 to 6.00 and the “BRG1 Max % Inhibition” value is listed as over 50%. In addition, at BRM, the pIC50 is 5.00 to 6.00 and the “BRM Max % Inhibition” value is on record as over 80%.
Turning to `CSCC[C@H](NC(=O)c1ccc(S(=O)(=O)N(C)C)s1)C(=O)Nc1nc(-c2ccccc2)cs1` [Compound 62, 5-(dimethylsulfamoyl)-N-[(1S)-3-methylsulfanyl-1-[(4-phenylthiazol-2-yl)carbamoyl]propyl]thiophene-2-carboxamide], at BRG-1, the pIC50 was 5.00 to 6.00 and the “BRG1 Max % Inhibition” value was over 70%. Further, on BRM, the negative logarithm of the IC50 (pIC50) was 5.00 to 6.00 and the “BRM Max % Inhibition” value is reported as over 80%.
As to `CSCC[C@H](NC(=O)c1cc(S(=O)(=O)N(C)C)cs1)C(=O)Nc1nc(-c2ccccc2)cs1` [Compound 64, 4-(dimethylsulfamoyl)-N-[(1S)-3-methylsulfanyl-1-[(4-phenylthiazol-2-yl)carbamoyl]propyl]thiophene-2-carboxamide], on BRG-1, the negative logarithm of the IC50 (pIC50) is 5.00 to 6.00 and the “BRG1 Max % Inhibition” value is recorded as over 60%. Also, at BRM, the pIC50 was 5.00 to 6.00 and the “BRM Max % Inhibition” value was over 70%.
Regarding `CC(C)(C)c1cccc(C(=O)NCC(=O)Nc2nc(-c3ccccc3)cs2)c1` [Compound 65, 3-(tert-butyl)-N-(2-oxo-2-((4-phenylthiazol-2-yl)amino)ethyl)benzamide], on BRG-1, the pIC50 is 5.00 to 6.00 and the “BRG1 Max % Inhibition” value is over 30%. At BRM, the pIC50 was 5.00 to 6.00 and the “BRM Max % Inhibition” value was over 70%.
In the case of `CSCC[C@H](NC(=O)c1ccc2[nH]cnc2c1)C(=O)Nc1nc(-c2ccccc2)cs1` [Compound 66, (S)—N-(4-(methylthio)-1-oxo-1-((4-phenylthiazol-2-yl)amino)butan-2-yl)-1H-benzo[d]imidazole-5-carboxamide], at BRG-1, the pIC50 is under 5.00 and the “BRG1 Max % Inhibition” value was over 50%. Moreover, on BRM, the pIC50 is under 5.00 and the “BRM Max % Inhibition” value is over 70%.
For `COc1ccc(C(=O)N[C@@H](CCSC)C(=O)Nc2nc(-c3ccccc3)cs2)cc1` [Compound 67, 4-methoxy-N-[(1S)-3-methylsulfanyl-1-[(4-phenylthiazol-2-yl)carbamoyl]propyl]benzamide], at BRG-1, the pIC50 is under 5.00 and the “BRG1 Max % Inhibition” value was over 70%. Moreover, at BRM, the pIC50 is under 5.00 and the “BRM Max % Inhibition” value is reported as over 70%.
In the case of `CSCC[C@H](NC(=O)c1ccc(C(F)(F)F)cc1)C(=O)Nc1nc(-c2ccccc2)cs1` [Compound 68], the pIC50 against BRG-1 and at BRM was under 5.00 each time.
As for `CSCC[C@H](NC(=O)c1ccccc1O)C(=O)Nc1nc(-c2ccccc2)cs1` [Compound 69, 2-hydroxy-N-[(1S)-3-methylsulfanyl-1-[(4-phenylthiazol-2-yl)carbamoyl]propyl]benzamide], at BRG-1, the pIC50 was under 5.00 and the “BRG1 Max % Inhibition” value is on record as over 60%. For the same compound, at BRM, the pIC50 was under 5.00 and the “BRM Max % Inhibition” value is recorded as over 60%.
For `CSCC[C@H](NC(=O)c1cc2ccccc2s1)C(=O)Nc1nc(-c2ccccc2)cs1` [Compound 71, (S)—N-(4-(methylthio)-1-oxo-1-((4-phenylthiazol-2-yl)amino)butan-2-yl)benzo[b]thiophene-2-carboxamide], at BRG-1, the pIC50 was under 5.00 and the “BRG1 Max % Inhibition” value is reported as over 50%. For the same compound, at BRM, the pIC50 is 5.00 to 6.00 and the “BRM Max % Inhibition” value is on record as over 60%.
As to `CNC(=O)c1ccc(C(=O)N[C@@H](CCSC)C(=O)Nc2nc(-c3ccccc3)cs2)cc1` [Compound 72, N4-methyl-N1-[(1S)-3-methylsulfanyl-1-[(4-phenylthiazol-2-yl)carbamoyl]propyl]terephthalamide], on BRG-1, the pIC50 was under 5.00 and the “BRG1 Max % Inhibition” value is reported as over 50%. Further, at BRM, the pIC50 is under 5.00 and the “BRM Max % Inhibition” value is given as over 60%.
Consider `CSCC[C@H](NC(=O)c1cccc(C(C)(C)C)c1)C(=O)Nc1nc(-c2ccccc2)cs1` [Compound 73, (S)-3-(tert-butyl)-N-(4-(methylthio)-1-oxo-1-((4-phenylthiazol-2-yl)amino)butan-2-yl)benzamide], for which, on BRG-1, the pIC50 was 5.00 to 6.00 and the “BRG1 Max % Inhibition” value is reported as over 30%. For the same compound, on BRM, the pIC50 is over 6.00 and the “BRM Max % Inhibition” value is over 50%.
The like results for `CSCC[C@H](NC(=O)c1ccc(CNC(C)=O)cc1)C(=O)Nc1nc(-c2ccccc2)cs1` [Compound 74, 4-(acetamidomethyl)-N-[3-methylsulfanyl-1-[(4-phenylthiazol-2-yl)carbamoyl]propyl]benzamide] were, in that order, under 5.00, over 30%, under 5.00 and over 50%.
The like results for `CSCC[C@H](NC(=O)c1cccc(CN)c1)C(=O)Nc1nc(-c2ccccc2)cs1` [Compound 75] were, in that order, under 5.00, over 60%, under 5.00 and over 50%.
The like results for `CSCC[C@H](NC(=O)c1cccc(C(F)(F)F)c1)C(=O)Nc1nc(-c2ccccc2)cs1` [Compound 77, N-[(1S)-3-methylsulfanyl-1-[(4-phenylthiazol-2-yl)carbamoyl]propyl]-3-(trifluoromethyl)benzamide] were, in that order, under 5.00, over 30%, under 5.00 and over 30%.
In the case of `CN(C)C(=O)c1cccc(C(=O)NCC(=O)Nc2nc(-c3ccccc3)cs2)c1` [Compound 78], the pIC50 against BRG-1 and on BRM was under 5.00 each time.
For the compound `O=C(CNC(=O)c1cc2c(s1)CCC2)Nc1nc(-c2ccccc2)cs1` [Compound 79, N-[2-oxo-2-[(4-phenylthiazol-2-yl)amino]ethyl]-5,6-dihydro-4H-cyclopenta[b]thiophene-2-carboxamide], on BRG-1, the pIC50 was 5.00 to 6.00 and the “BRG1 Max % Inhibition” value is listed as over 30%. Moreover, on BRM, the pIC50 was over 6.00 and the “BRM Max % Inhibition” value is over 30%.
As for `CNc1ccc(C(=O)N[C@@H](CCSC)C(=O)Nc2nc(-c3ccccc3)cs2)cc1` [Compound 81, 4-(methylamino)-N-[(1S)-3-methylsulfanyl-1-[(4-phenylthiazol-2-yl)carbamoyl]propyl]benzamide], on BRG-1, the pIC50 is over 6.00 and the “BRG1 Max % Inhibition” value was over 95%. Besides, on BRM, the pIC50 was over 6.00 and the “BRM Max % Inhibition” value is over 95%.
Regarding `CSCC[C@H](NC(=O)c1cccc(CO)c1)C(=O)Nc1nc(-c2ccccc2)cs1` [Compound 84, 3-(hydroxymethyl)-N-[(1S)-3-methylsulfanyl-1-[(4-phenylthiazol-2-yl)carbamoyl]propyl]benzamide], at BRG-1, the pIC50 was under 5.00 and the “BRG1 Max % Inhibition” value is on record as over 80%. On BRM, the pIC50 is under 5.00 and the “BRM Max % Inhibition” value is reported as over 80%.
